# Results from patent US20130296316A1, “Antiparasitic Agents Based On mTOR Inhibitors” (priority 2010, published 2013).
# “Also recorded” adds a separate entry of the source. Like-named read-outs stand apart in the source and are kept apart here.
# How the values were obtained:
# [1] = system: Leishmania; conditions: methods similar to those described here; cited from earlier work
# [2] = system: L. donovani promastigotes; assay: Potency assessment against Leishmania donovani promastigotes (growth, cell counting); format: cell-based; conditions: promastigotes, average of three replicates; read-out: Effective concentration (EC50) L. donovani promastigotes
# [3] = system: human cells; conditions: literature, Table 1; read-out: Inhibition of Cell Growth EC50; cited from earlier work
# [4] = system: L. donovani axenic amastigotes; assay: Potency assessment against Leishmania donovani axenic amastigotes (growth, cell counting); format: cell-based; conditions: axenic amastigotes, average of three replicates; read-out: Effective concentration (EC50) L. donovani axenic amastigotes
# [5] = system: T. brucei brucei Lister 427 bloodstream cells; assay: Morphological and cell cycle alterations in T. brucei (flow cytometry); format: cell-based, Trypanosoma brucei brucei
# Protocol: Flow cytometry was used to assess cell size and DNA content, to reveal a G1 arrest and inhibition of protein synthesis or G2 arrest and multinucleated cells. […]. After permeabilization with […], saponin (0.5 mg/mL final concentration), the culture was RNAse treated for 30 minutes (10 μg/mL final concentration) and stained with 20 μg/mL propidium iodide immediately before its acquisition in a FACscan cytometer. Cells incubated with equivalent concentration of drug solvent (DMSO) were included in each experiment as control population.
# [6] = system: L. major promastigotes; assay: Cell size and DNA content analysis in Leishmania (flow cytometry); format: cell-based, Leishmania major
# Protocol: L. major log phase promastigotes were inoculated at a concentration of 10^6 cells/ml into media with compounds as indicated, and incubated overnight with varying drug concentrations to assess cell size and DNA content. For cell size, forward scatter of live promastigotes was measured by a FACS flow cytometer (Becton Dickinson), utilizing dye exclusion with 5 μg/ml propidium iodide (PI) to gate for live cells. DNA content was determined by flow cytometry using fixed and permeabilized L. major stained with PI as previously described, but reducing the incubation time with PI and RNase A from 1 hour to 30 minutes. Histogram analysis was performed using CellQuest 3.1 software (BD Bioscience).
# [7] = system: L. major; assay: Mouse model of L. major infection (bioluminescent imaging); format: in vivo, Balb/c mice
# Protocol: (§1) The targeted dosage of inhibitors was determined based on the pharmacokinetic studies disclosed by Maira, et al.. […] For L. major, 12.5 mg/kg orally was the highest tolerable dose while 30 mg/kg intraperitoneally was used for the T. cruzi infections. A lower dose was initially used in T. brucei, 5 or 10 mg/kg intraperitoneally.
# Mouse experiments were done in compliance with policies approved by the Animal Review Board at Washington University. Mice were infected with luciferase expressing L. major (LmFV1LucTK-1) and analyzed by bioluminescent imaging as described. Balb/c mice were infected with 10^5 L. major metacyclic stage parasites purified by gradient centrifugation. Luminescence was measured using an IVIS 100 instrument and analyzed with Living Image software version 2.60.
# [8] = system: T. b. rhodesiense; assay: Potency assessment against T. b. rhodesiense EATRO3 bloodstream form (AlamarBlue, 72 h); format: cell-based, Trypanosoma brucei rhodesiense
# [9] = system: free T. cruzi trypomastigotes; assay: T. cruzi extracellular survival of free trypomastigotes (24 h, CPRG); format: cell-based, Trypanosoma cruzi
# Protocol: T. cruzi trypomastigotes from the Tulahuen strain stably expressing the β-galactosidase gene were obtained from the supernatant of infected cultures of LLC-MK2 cells harvested between days 5 and 7. To remove amastigotes, trypomastigotes were allowed to swim out of the pellet of samples that had been centrifuged for 7 min at 2500 rpm.
# Free trypomastigotes were rinsed once and placed in 96-well plates at 100,000/well with the compounds in a final volume of 200 μl of DMEM without phenol red supplemented with 2% FBS, Pen-Strep-Glut and 100 μM CPRG. Plates were incubated for 24 h at 37° C. and absorbance was read at 590 nm.
# [10] = system: T. b. brucei Lister 927; assay: Potency assessment against T. b. brucei Lister 927; format: cell-based, Trypanosoma brucei brucei; conditions: Table 3
# Protocol: Assays were performed using the strain of T. brucei brucei Lister 427 adapted to the laboratory, and the human-infective strain T. b. rhodesiense (EATRO3 ETat1.2 TREU164 [37]). Both strains were grown and tested as bloodstream forms. To establish the EC50, cultures of Trypanosoma brucei and T. b. rhodesiense were treated with two-fold increasing concentrations of compounds (with similar DMSO increasing concentration as control). Cell populations were measured at 72 hours with an Infinite F200 microplate reader (Tecan Austria GmbH, Austria); the determination of cell viability was carried out by the established colorimetric technique AlamarBlue® with modifications, a 96-well plate format spectrophotometric assay which measures the ability of living cells to reduce resazurin [38,39]. Data obtained with T. b. brucei Lister 427 were confirmed by manual counting in a Neubauer chamber for a direct microscopic examination to rule out multinucleated phenotypes that could mask the colorimetric assays, as well as the subtraction of solvent background to dismiss a potential solvent-derived fluorescence. Pentamidine was used as drug control for potency comparison, and T. b. brucei Lister 927 strain was included in our experiments to evaluate the adaptation to medium for the different strains as a variable condition.
# [11] = system: T. cruzi Y strain; assay: Mouse model of T. cruzi infection (luciferase imaging); format: in vivo, Balb/c mice; conditions: 30 mg/kg, 5 days, intraperitoneal
# Protocol: as §1
# Balb/c mice were inoculated intraperitoneally with 10^5 trypomastigotes from T. cruzi Y strain expressing firefly luciferase (kindly provided by Dr. Barbara Burleigh, Harvard University). On day 7 post-infection, mice were anesthetized with ketamine/xylazine and injected with 3 mg of D-Luciferin Potassium Salt (Gold Biotechnology) at 20 mg/ml in PBS and imaged in the IVIS Lumina II (Caliper Life Sciences). […] Mice were treated for 5 days and imaged again on day 13. Data is expressed as the ratio between luciferase units in day 13 versus day 7 to determine the progression of infection with and without drug treatment.
# [12] = system: T. cruzi trypomastigotes; assay: T. cruzi intracellular replication in NIH/3T3 host cells (β-galactosidase, CPRG); format: cell-based, Trypanosoma cruzi
# [13] = system: L. major promastigotes; assay: Potency assessment against Leishmania major promastigotes (growth, cell counting); format: cell-based; conditions: promastigotes, average of three replicates; read-out: Effective concentration (EC50) L. major
# [14] = system: T. brucei gambiense, ELIANE strain; assay: Potency assessment against T. b. gambiense ELIANE bloodstream form; format: cell-based, Trypanosoma brucei gambiense
# [15] = system: T. brucei brucei Lister 427; assay: Potency assessment against T. brucei brucei Lister 427 bloodstream form (AlamarBlue, 72 h); format: cell-based, Trypanosoma brucei brucei
# [16] = system: Leishmania; assay: Leishmania growth inhibition summarised across both species and stages; format: cell-based; conditions: range over L. major and L. donovani, promastigotes and amastigotes; read-out: inhibition of Leishmania across both species and stages
# [17] = system: T. b. rhodesiense EATRO3; assay: Acute mouse infection model of T. b. rhodesiense; format: in vivo, Balb/c mice; conditions: for mean survival day (MSD): once per day for four days, untreated died 6th day
compound,measurement,setting,value
C[C@@H]1[C@H](O)[C@@H](C)/C=C/C=C/C=C/C=C/C=C/C=C/C=C/[C@H](O[C@@H]2O[C@H](C)[C@@H](O)[C@H](N)[C@@H]2O)C[C@@H]2O[C@](O)(C[C@@H](O)C[C@@H](O)[C@H](O)CC[C@@H](O)C[C@@H](O)CC(=O)O[C@H]1C)C[C@H](O)[C@H]2C(=O)O [amphotericin B],potency of anti-leishmanial agent,[1],30 nM
NVP-BEZ235,EC50,[2],140 ± 80 nM
same,EC50,[3],50 nM
same,EC50,[4],70 ± 40 nM
same,"effect on cellular DNA content / cell cycle, T. b. brucei",[5],appearance of zoids (anucleated cells) [59] and multinucleated cells; also recorded: reduction of G1 and G2 cells
same,"effect on cell size and DNA content, L. major promastigotes",[6],G2 growth arrest and increased promastigote size
same,body weight of drug-treated mice,"[7]; 12.5 mg/kg/day oral gavage, L. major infected mice",significant weight loss; also recorded: severe weight loss
same,efficacy against L. major infection,"[7]; 12.5 mg/kg/day, 10 days, oral gavage",no efficacy; also recorded: no therapeutic effect
same,lethality at higher doses,[7]; dosing intraperitoneally at 25 mg/kg/day (higher drug doses),lethal
same,highest tolerable dose,"[7]; orally, L. major mouse model",12.5 mg/kg
same,EC50,"[8]; Table 3, read-out: EC50 T. b. rhodesiense EATRO3",0.73 ± 0.06 nM
same,EC50,"[8]; bloodstream form, cell printed in nM, read-out: Effective concentration (EC50) T. b. rhodesiense",0.73 ± 0.06 nM
same,EC50,[8]; read-out: activity against EATRO3 strain of T. b. rhodesiense,0.73 nM
same,"activity against free, non-replicating T. cruzi trypomastigotes in words",[9],inactive
same,EC50,"[9]; non-replicating, outside host cells, read-out: EC50 against free trypomastigotes",> 50000 nM
same,EC50,[10],1.7 ± 0.5 nM
same,efficacy against T. cruzi infection,[11],no efficacy
same,amastigote lysis within host cells,"[12]; 350 nM, after three days, NIH-3T3 host cells",amastigotes lysis within host cells was observed
same,EC50,[12]; read-out: EC50 T. cruzi infection of host cell fibroblasts,120 nM
same,EC50,[13],110 ± 50 nM
same,EC50,"[14]; Table 3, read-out: EC50 T. b. gambiense ELIANE",0.18 ± 0.2 nM
same,EC50,[14]; read-out: EC50 against BSF T. brucei gambiense ELIANE,0.179 nM
same,potency against BSF T. brucei brucei in words,[15]; Lister 427,nanomolar potency
same,EC50,"[15]; Table 3, read-out: EC50 T. b. brucei 427",16.3 ± 4.7 nM
same,EC50,"[15]; bloodstream form, cell printed in nM, read-out: Effective concentration (EC50) T. b. brucei",< 10 nM
same,EC50,[16],70 to 140 nM
same,mean survival day (MSD),[17]; 5 mg/kg intraperitoneal,10.8 (±2.4) days
same,mean survival day (MSD),[17]; 10 mg/kg intraperitoneal,13.4 (±3.3) days
same,parasites eliminated,"[17]; 10 mg/kg, for four days",80%
same,parasitemia,"[17]; 5 or 10 mg/kg intraperitoneal, within two days, detection limit",< 10^4 parasites/mL
